# System: Leishmania major
# Experiment: Antileishmanial activity against Leishmania major promastigotes after 72 hrs by Neubauer counting chamber based microscopy
# Format: functional, organism-based
# Settings: not given; call rule not given here
row,IC50,SMILES
1,Not Active,O=[N+]([O-])c1ccc2ncnc(Nc3cccc(Cl)c3)c2c1
2,Not Active,O=[N+]([O-])c1ccc2ncnc(Nc3ccccc3)c2c1
3,Not Active,O=[N+]([O-])c1ccc2ncnc(Nc3ccc(F)cc3)c2c1
4,Not Active,O=[N+]([O-])c1ccc2ncnc(Nc3ccc(I)cc3)c2c1
5,Not Active,COc1cccc(Nc2ncnc3ccc([N+](=O)[O-])cc23)c1
6,Not Active,O=[N+]([O-])c1ccc2ncnc(Nc3ccc(Cl)cc3Cl)c2c1
7,Not Active,O=[N+]([O-])c1ccc2ncnc(Nc3ccc(Cl)cc3)c2c1
8,Not Active,O=[N+]([O-])c1ccc2ncnc(Nc3cccc(O)c3)c2c1
9,Not Active,COc1ccc(Nc2ncnc3ccc([N+](=O)[O-])cc23)cc1
10,Not Active,Cc1ccc(C)c(Nc2ncnc3ccc([N+](=O)[O-])cc23)c1
11,Not Active,O=[N+]([O-])c1ccc2ncnc(Nc3cc(Cl)ccc3Cl)c2c1
12,Not Active,O=[N+]([O-])c1ccc2ncnc(Nc3ccc(Cl)c(Cl)c3)c2c1
13,Not Active,COc1cc(OC)c(Nc2ncnc3ccc([N+](=O)[O-])cc23)cc1Cl

# Same assay, conditions: Leishmania major, 72 h; read-out: IC50
row,IC50 [µM],SMILES
1,9.04,O=[N+]([O-])c1ccc2ncnc(Nc3cccc(Br)c3)c2c1
2,35.9,Cc1ccc(Nc2ncnc3ccc([N+](=O)[O-])cc23)cc1C
3,4.37,COc1ccccc1Nc1ncnc2ccc([N+](=O)[O-])cc12
4,44.9,Cc1ccc(Cl)cc1Nc1ncnc2ccc([N+](=O)[O-])cc12
5,12.3,COc1ccc(OC)c(Nc2ncnc3ccc([N+](=O)[O-])cc23)c1
6,6.53,O=[N+]([O-])c1ccc2ncnc(Nc3ccccc3Cl)c2c1
7,1.87,CSc1ccc(Nc2ncnc3ccc([N+](=O)[O-])cc23)cc1
8,24,Cc1ccc(Nc2ncnc3ccc([N+](=O)[O-])cc23)cc1
9,38.2,CCc1ccc(Nc2ncnc3ccc([N+](=O)[O-])cc23)cc1
10,19.9,CSc1cccc(Nc2ncnc3ccc([N+](=O)[O-])cc23)c1
11,61.5,O=[N+]([O-])c1ccc2ncnc(Nc3ccc(Br)cc3)c2c1

# System: Leishmania major
# Experiment: Potency index, ratio IC50 of pentamidine to IC50 of compound for antilieshmanial activity against Leishmania major promastigotes
# Format: functional
# Settings: not given
row,SMILES,Ratio IC50
1,CSc1ccc(Nc2ncnc3ccc([N+](=O)[O-])cc23)cc1,3

# From ChEMBL document CHEMBL3758080, “4-Arylamino-6-nitroquinazolines: Synthesis and their activities against neglected disease leishmaniasis” (Eur J Med Chem, 2016)
